Experiments:
[1] = test system: OVCAR-3 cells; experiment: imaging-based nuclear count analysis (NCA) in OVCAR-3 cells; type: cell-based; settings: cultured 4 days, Hoechst 33342 nuclear count, 0.1% DMSO
Procedure: Test name: imaging-based nuclear count analysis (NCA) in OVCAR-3 cells
• a) When the cell confluence reached 80%-90%, the cells were treated. • b) The cells were resuspended in a medium and then counted and diluted at a desired density. • c) A cell suspension containing appropriate cells was added to the 384-well plate at 30 µL/well: 600 cells/well.
• a) 30 µL of 8% fixative (final concentration 4%) was added and the plate was incubated at room temperature for 30 min. • b) The plate was centrifuged at 1000RPM for 30s. • c) The plate was washed twice with 60 µl/well PBS. • d) After immobilization, the cells were permeabilized and stained in 60 µL of a wash buffer containing 2 µg/mL Hoechst 33342 DNA dye (1% BSA, 0.2% Triton X-100, 1X PBS). • e) The plate was sealed and incubated at room temperature in the dark for 1 h. • f) It was washed with PBS 3 times. • g) 50µLPBS/well was added and the plate was scanned using HCS. • h) Data acquisition and detection
High-reading control wells: cells + 30 nL DMSO; low-reading control wells: 10 µM AM-5308.
IC50 (nM) was calculated using GraphPad Prism 8 software and the effect-dose curves of the compound were plotted. Table 1 Bioactivity data of the compound of the present application

[2] = biological target: T1, KIF18A (Homo sapiens, UniProt Q8NI77); experiment: KIF18A enzyme activity test (ADP Glo); type: biochemical; settings: ADP Glo luminescence, 60 min reaction at room temperature, 1% DMSO
T1 sequence (Q8NI77 1-898): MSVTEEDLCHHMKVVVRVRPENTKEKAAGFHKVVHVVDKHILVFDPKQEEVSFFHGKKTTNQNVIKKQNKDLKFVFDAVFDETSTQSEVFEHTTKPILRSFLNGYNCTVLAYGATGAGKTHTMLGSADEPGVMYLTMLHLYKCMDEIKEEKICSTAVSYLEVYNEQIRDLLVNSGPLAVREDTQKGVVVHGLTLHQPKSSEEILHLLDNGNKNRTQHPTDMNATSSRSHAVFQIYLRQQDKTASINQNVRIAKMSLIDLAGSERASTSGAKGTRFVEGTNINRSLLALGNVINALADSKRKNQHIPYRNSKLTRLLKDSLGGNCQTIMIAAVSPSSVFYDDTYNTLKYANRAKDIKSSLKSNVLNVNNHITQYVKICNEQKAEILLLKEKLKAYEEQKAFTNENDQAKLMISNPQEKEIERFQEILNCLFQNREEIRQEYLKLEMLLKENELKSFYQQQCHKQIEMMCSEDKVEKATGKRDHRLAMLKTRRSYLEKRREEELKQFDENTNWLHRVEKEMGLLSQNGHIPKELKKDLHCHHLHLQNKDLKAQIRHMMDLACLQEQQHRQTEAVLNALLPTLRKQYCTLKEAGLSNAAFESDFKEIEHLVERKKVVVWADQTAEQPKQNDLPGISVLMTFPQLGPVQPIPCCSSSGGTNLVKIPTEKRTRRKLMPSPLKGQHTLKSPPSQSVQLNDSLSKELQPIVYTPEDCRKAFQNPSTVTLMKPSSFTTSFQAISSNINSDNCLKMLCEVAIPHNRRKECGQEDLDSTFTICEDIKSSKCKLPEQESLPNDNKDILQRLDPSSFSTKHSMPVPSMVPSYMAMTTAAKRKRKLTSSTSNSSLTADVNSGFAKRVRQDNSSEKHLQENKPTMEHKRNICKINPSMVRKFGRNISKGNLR
Procedure: Test name: KIF18A enzyme activity test
• 1) Compound dilution and treatment: The final concentrations of AM-5308: 10000, 3333.3, 1111.1, 370.3, 123.4, 41.1, 13.7, 4.5, 1.5, 0.5 nM, the final testing concentrations of the testing compound: 10000, 3333.3, 1111.1, 370.3, 123.4, 41.1, 13.7, 4.5, 1.5 and 0.5 nM. • 2) To each well of the reaction plate, 100 nL of the diluted compound stock solution was transferred using Echo 655. The final concentration of DMSO was 1%. • 3) The reaction plate was sealed with a sealing membrane and centrifuged at 1000g for 1 min. • 4) A 2× enzyme solution was prepared with 1× reaction buffer. • 5) To each well of the reaction plate, 5 µL of 2×enzyme solution was added. The plate was sealed with a sealing membrane, centrifuged at 1000g for 1 min and left at room temperature for 15 min. • 6) A 2× ATP solution was prepared with 1× reaction buffer. • 7) To the reaction plate, 5 µL of 2×ATP solution was added, the plate was centrifuged at 1000g for 1 min, and the reaction was started. • 8) The system was allowed to react at room temperature for 60 min. • 9) 10 µL of ADP Glo reagent was added. The system was centrifuged at 1000 g for 1 min and incubated at room temperature for 60 min. • 10) 20 µL of kinase detection reagent was added. The system was centrifuged at 1000 g for 1 min, and incubated at room temperature for 60 min. • 11) The system was centrifuged at 1000 g for 1 min. • 12) The luminescence signals were read on Envision 2104.
The inhibition percentage is calculated as follows: %inhibition = 100−(Signalcmpd−SignalAve_PC)/(SignalAve_VC−SignalAve_PC) × 100 [formula] • Signalcmpd: Average value of the test compound on the reaction plate. • SignalAve_PC: Average value of the positive control (AM-5308) on the reaction plate. • SignalAve_VC: Average value of the negative control (DMSO) on the reaction plate.
IC50 was calculated and the dose-effect curve was fit: The IC50 of the compound was obtained by non-linear fitting formula with GraphPad 8.0.
Z factor > 0.5; S/B > 2. Table 2 Enzyme activity data for the compound of the present application

IC50 ([1]; Homo sapiens, 96 h) | IC50 [2] | IC50 [1] | SMILES
163 nM | 21.2 nM |  | COc1ccc2c(NC(=O)c3ccc(NS(=O)(=O)CCO)cc3N3CCC4(CC3)CC4)cccc2c1 [Compound 1, 2-{6-azaspiro[2.5]octan-6-yl}-4-(2-hydroxyethanesulfonylamino)-N-(6-methoxynaphthalen-1-yl)benzamide]
568 nM |  |  | O=C(Nc1cccc2ccccc12)c1ccc(NS(=O)(=O)CCO)cc1N1CCC2(CC1)CC2 [Compound 2, 2-{6-azaspiro[2.5]octan-6-yl}-4-(2-hydroxyethanesulfonylamino) -N-(naphthalen-1-yl)benzamide]
478 nM |  |  | Cc1ccc2c(NC(=O)c3ccc(NS(=O)(=O)CCO)cc3N3CCC4(CC3)CC4)cccc2c1 [Compound 4, 2-{6-azaspiro[2.5]octan-6-yl}-4-(2-hydroxyethanesulfonylamino) -N-(6-methylnaphthalen-1-yl)benzamide]
369 nM |  |  | O=C(Nc1cccc2cc(Cl)ccc12)c1ccc(NS(=O)(=O)CCO)cc1N1CCC2(CC1)CC2 [Compound 5, {6-azaspiro[2.5]octan-6-yl}-N-(6-chloronaphthalen-1-yl)-4-(2-hydroxyethanesulfonylamino) benzamide]
976 nM |  |  | O=C(Nc1cccc2ccc(F)cc12)c1ccc(NS(=O)(=O)CCO)cc1N1CCC2(CC1)CC2 [Compound 6, 2-{6-azaspiro[2.5]octan-6-yl}-N-(7-fluoronaphthalen-1-yl)-4-(2-hydroxyethanesulfonylamino) benzamide]
458 nM |  |  | O=C(Nc1cccc2cc(C(F)(F)F)ccc12)c1ccc(NS(=O)(=O)CCO)cc1N1CCC2(CC1)CC2 [Compound 7, 2-{6-azaspiro[2.5]octan-6-yl}-4-(2-hydroxyethanesulfonylamino) -N-(6-(trifluoromethyl)naphthalen-1-yl)benzamide]
143 nM | 21.3 nM |  | O=C(Nc1cccc2c1nc1n2CCCC1)c1ccc(NS(=O)(=O)CCO)cc1N1CCC2(CC1)CC2 [Compound 22, 4-(2-hydroxyethanesulfonylamino)-2-(6-azaspiro[2.5]octan-6-yl)-N-(benzo[4,5]imidazo[1,2-a]piperidin-6-yl)benzamide]
258 nM |  |  | O=C(Nc1cccc2c1CCC1(CCCC1)C2)c1ccc(NS(=O)(=O)CCO)cc1N1CCC2(CC1)CC2 [Compound 51, 2-{6-azaspiro[2.5]octan-6-yl}-N-{3',4'-dihydro-1'H-spiro[cyclopentane-1,2'-naphthalen]-5'-yl}-4-(2-hydroxyethanesulfonylamino)benzamide]
73.1 nM |  |  | O=C(Nc1cccc2c1CCC1(CC1)C2)c1ccc(NS(=O)(=O)CCO)cc1N1CCC2(CC1)CC2 [Compound 56, 2-{6-azaspiro[2.5]octan-6-yl}-N-{3',4'-dihydro-1'H-spiro[cyclopropane-1,2'-naphthalen]-5'-yl}-4-(2-hydroxyethanesulfonylamino)benzamide]
763 nM |  |  | Cc1cc(NC(=O)c2ccc(NS(=O)(=O)CCO)cc2N2CCC3(CC2)CC3)nc2c1nc1n2CC(F)(F)CC1 [Compound 64, N-(8,8-difluoro-4-methyl-pyrido[2,3-d]imidazo[1,2-a]piperidin-2-yl)-4-(2-hydroxyethanesulfonylamino)-2-(6-azaspiro[2.5]octan-6-yl)benzamide]
71.2 nM |  |  | O=C(Nc1cccc2c1nc1n2CCC1(F)F)c1ccc(NS(=O)(=O)CCO)cc1C1=CCC2(CC1)CC2 [Compound 90, N-(3,3-difluoro-2,3-dihydro-1H-benzo[d]pyrrolo[1,2-a]imidazol-5-yl)-4-(2-hydroxyethanesulfonylamino)-2-(spiro[2.5]oct-5-en-6-yl)benzamide]
98.9 nM |  |  | COc1ccc2c(NC(=O)c3ccc(NS(=O)(=O)CCO)cc3N3CCC4(CC3)CC4)ccnc2c1 [Compound 95]
109 nM |  |  | Cc1cc(NC(=O)c2ccc(NS(=O)(=O)CCO)cc2N2CCC3(CC2)CC3)c2nc3n(c2c1)[C@H]1CC[C@@H]3C1 [Compound 99, 4-(2-hydroxyethanesulfonylamino)-N-((1S,4R)-8-methyl-1,2,3,4-tetrahydro-1,4-methylenebenzo[4,5]imidazo[1,2-a]pyridin-6-yl)-2-(6-azaspiro[2.5]octan-6-yl)benzamide]
 |  | 110 nM | O=C(Nc1cccc2c1nc1n2C2CCC1CC2)c1ccc(NS(=O)(=O)CCO)cc1N1CCC2(CC1)CC2 [Compound 100, 4-(2-hydroxyethanesulfonylamino)-2-(6-azaspiro[2.5]octan-6-yl)-N-(1,2,3,4-tetrahydro-1,4-ethylbenzo[4,5]imidazo[1,2-a]pyridin-6-yl)benzamide]
125 nM |  |  | CC1CCn2c1nc1c(NC(=O)c3ccc(NS(=O)(=O)CCO)cc3N3CCC4(CC3)CC4)cccc12 (stereo not drawn) [Compound 106, 4-(2-hydroxyethanesulfonylamino) -N-(3-methyl-2,3-dihydro-1H-benzo[d]pyrrolo[1,2-a]imidazol-5-yl)-2-(6-azaspiro[2.5]octan-6-yl)benzamide]
183 nM |  |  | O=C(Nc1cccc2c1nc1n2CCCCC1)c1ccc(NS(=O)(=O)CCO)cc1C1=CCC2(CC1)CC2 [Compound 108, 4-(2-hydroxyethanesulfonylamino) -2-(spiro[2.5]oct-5-en-6-yl)-N-(7,8,9,10-tetrahydro-6H-benzo[4,5]imidazo[1,2-a]azepin-4-yl)benzamide]
161 nM |  |  | O=C(Nc1cccc2c1oc1ccccc12)c1ccc(NS(=O)(=O)CCO)cc1N1CCC2(CC1)CC2 [Compound 111, N-(dibenzo[b,d]furan-4-yl)-4-(2-hydroxyethanesulfonylamino)-2-(6-azaspiro[2.5]octan-6-yl)benzamide]
117 nM |  |  | O=C(Nc1ccnc2cc(C3CC3)ccc12)c1ccc(NS(=O)(=O)CCO)cc1N1CCC2(CC1)CC2 [Compound 112, 2-{6-azaspiro[2.5]octan-6-yl}-N-(7-cyclopropylquinolin-4-yl)-4-(2-hydroxyethylsulfonylamino)benzamide]
97.9 nM |  |  | O=C(Nc1cc(F)cc2c1nc1n2[C@H]2CC[C@@H]1C2)c1ccc(NS(=O)(=O)CCO)cc1N1CCC2(CC1)CC2 [Compound 113a, N-((1S,4R)-8-fluoro-1,2,3,4-tetrahydro-1,4-methylenebenzo[4,5]imidazo [1,2-a]pyridin-6-yl)4-(2-hydroxyethanesulfonylamino) -2-(6-azaspiro[2.5]octan-6-yl)benzamide]

Source: patent EP4567032A1, “KIF18A INHIBITOR COMPOUND, AND PHARMACEUTICAL COMPOSITION AND PREPARATION METHOD THEREFOR AND USE THEREOF” (Changchun Genescience Pharmaceutical Co., Ltd., priority 2022, dated 2024)
